Data as given in publication PMC3958853, “Characterization and Antioxidant Properties of Six Algerian Propolis Extracts: Ethyl Acetate Extracts Inhibit Myeloperoxidase Activity” (International Journal of Molecular Sciences, 2014).
Where “and” joins values, the source holds several entries; their conditions need not be identical. Equal values may be shown once. Read-outs that look alike come from different tables or passages of the source.

Tests used:
recombinant MPO [1] = biological target: T1, recombinant MPO (Homo sapiens, UniProt P05164); settings: stated among literature reports, no reference given; cited from earlier work
T1 construct: made in house
T1 sequence (P05164 49-745): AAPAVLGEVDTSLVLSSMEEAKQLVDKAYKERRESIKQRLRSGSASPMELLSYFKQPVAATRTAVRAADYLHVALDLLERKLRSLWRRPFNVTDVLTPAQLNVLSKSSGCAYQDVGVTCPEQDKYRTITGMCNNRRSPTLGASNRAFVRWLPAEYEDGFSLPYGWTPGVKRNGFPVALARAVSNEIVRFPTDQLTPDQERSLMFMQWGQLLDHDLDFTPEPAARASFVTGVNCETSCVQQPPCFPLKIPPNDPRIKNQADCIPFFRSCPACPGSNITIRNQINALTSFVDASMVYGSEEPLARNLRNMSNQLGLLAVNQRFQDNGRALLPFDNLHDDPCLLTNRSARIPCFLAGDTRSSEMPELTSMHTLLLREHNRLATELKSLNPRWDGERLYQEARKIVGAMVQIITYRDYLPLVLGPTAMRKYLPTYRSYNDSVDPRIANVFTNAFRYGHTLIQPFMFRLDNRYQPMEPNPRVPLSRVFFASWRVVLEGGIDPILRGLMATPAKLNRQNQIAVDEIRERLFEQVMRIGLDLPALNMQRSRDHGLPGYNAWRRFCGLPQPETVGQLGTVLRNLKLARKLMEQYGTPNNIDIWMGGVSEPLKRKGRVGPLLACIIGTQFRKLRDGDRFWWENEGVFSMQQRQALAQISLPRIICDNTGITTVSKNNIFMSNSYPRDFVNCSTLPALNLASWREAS

recombinant MPO [2] = biological target: T1, recombinant MPO; assay: Myeloperoxidase inhibition assay (taurine chloramine); type: biochemical; settings: pure compounds, read-out: IC50 (μM) ± SD for MPO
Procedure: The recombinant MPO was produced as previously described Moguilevsky et al. and each batch solution was characterized by its protein concentration (mg/mL), its activity (U/mL), and its specific activity (U/mg). The chlorination activity was determined according to Hewson and Hager, (1979). Human plasma served for the isolation of LDL by ultracentrifugation according to Havel et al. (1955). Before oxidation, the LDL fraction (1.019 < d < 1.067 g/mL) was desalted by two consecutive passages through PD10 gel-filtration columns (Amersham Biosciences, Hoevelaken, The Netherlands) using PBS buffer. The different steps were carried out in the dark, and the protein concentration was measured by the Lowry assay for both MPO and LDL [57].
The assay was based on the production of taurine chloramine by the MPO/H2O2/Cl^− system which can be determined by means of 5-thio-2-nitrobenzoic acid (TNB) in the presence of a selected inhibitor at defined concentration. The reaction mixture contained the following reagents in a final volume of 200 μL:pH 7.4 phosphate buffer (10 mM PO4^3−/300 mM NaCl), taurine (15 mM), extraction solutions of propolis, and the fixed amount of the recombinant MPO (6 μL of MPO batch solution diluted 2.5 times, 40 nM). When necessary, the volume was adjusted with water. This mixture was incubated at 37 °C and the reaction initiated with 10.0 μL of H2O2 (100 μM). After 5 min, the reaction was stopped by the addition of 10 μL of catalase (8 U/μL). To determine the amount of taurine chloramines produced, 50 μL of 1.35 mM solution of TNB were added and the volume adjusted to 300 μL with water. Then, the absorbance of the solutions was measured at 412 nm with a microplate reader and the curve of the absorbance as a function of the inhibitor concentration was plotted. To remove the influence of HOCl scavenging carried out by the extracts, the same procedure of MPO inhibition assay was done but with addition of 6 μL of HOCl (60 μM) instead of the solution of MPO and H2O2.

Row | IC50 (recombinant MPO [2]) | Compound | IC50 (recombinant MPO [1]) [µM]
1 |  | O=c1c(O)c(-c2ccc(O)c(O)c2)oc2cc(O)cc(O)c12 [Quercetin] | ~5
2 | 8 ± 2 µM | O=c1cc(-c2ccccc2)oc2cc(O)cc(O)c12 [Chrysin] | 
3 | > 10 µM | CC(C)c1c(O)ccc2c1CC[C@H]1C(C)(C)CCC[C@]21C [Totarol] | 
4 | 9 ± 4 µM | O=C(O)/C=C/c1ccccc1 [Cinnamic acid] | 
5 | 9 ± 2 µM | COc1ccc(-c2cc(=O)c3c(O)cc(O)cc3o2)cc1 [Acacetin] | 
6 | > 10 µM | O=c1c(O)c(-c2ccccc2)oc2cc(O)cc(O)c12 [Galangin] | 
7 | 6 ± 3 µM | COc1cc(/C=C/C(=O)O)ccc1O [Ferulic acid] | 
8 | > 10 µM | O=C(O)/C=C/c1ccc(O)c(O)c1 [Caffeic acid] | 
9 | 4.1 µM and 4 µM | O=c1c(O)c(-c2ccc(O)cc2)oc2cc(O)cc(O)c12 [Kaempferol] | 

Row | Compound | IC50 (recombinant MPO [2]) | IC50 (recombinant MPO [1]) [µM]
10 | O=c1c(-c2ccc(O)cc2)coc2cc(O)cc(O)c12 [Genistein] | > 10 µM | 
